#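 Compound exposure: 48 hours, 5 concentrations, 96-well plates. GI50 is the concentration that inhibits growth by half. TGI: total growth inhibition.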
# Columns and labels:
# Assay in all cases: NCI anticancer screen, dose series, 48 h
# [1] = system: MDA-MB-435
# [2] = system: NCI-H23 lung
# [3] = system: HCC-2998 colon
# [4] = system: A549 NSCLC
# [5] = system: MDA-MB-468 breast
# [6] = system: DU-145 prostate
# [7] = system: TK-10 renal
# [8] = system: MALME-3M melanoma
# [9] = system: SNB-19 CNS
# [10] = system: RPMI-8226 leukemia
# [11] = system: SF-268 CNS
# [12] = system: SK-MEL-2 melanoma
# [13] = system: KM12 colon
# [14] = system: HS 578T breast
# [15] = system: MOLT-4 leukemia
# [16] = system: UACC-257 melanoma
# [17] = system: T-47D breast
# [18] = system: ACHN renal
# [19] = system: PC-3 prostate
# [20] = system: COLO 205 colon
# [21] = system: 786-0 renal
# [22] = system: OVCAR-4 ovarian
# [23] = system: SK-MEL-28 melanoma
# [24] = system: SNB-75 CNS
# [25] = system: CAKI-1 renal
# [26] = system: NCI-H522 lung
# [27] = system: OVCAR-8 ovarian
# [28] = system: CCRF-CEM leukemia
# [29] = system: IGROV1 ovarian
# [30] = system: EKVX NSCLC
# [31] = system: A498 renal
# [32] = system: UO-31 renal
# [33] = system: HOP-62 NSCLC
# [34] = system: SW-620 colon
# [35] = system: K-562 leukemia
# [36] = system: MCF7 breast
# [37] = system: SK-MEL-5 melanoma
# [38] = system: SF-539 CNS
# [39] = system: NCI-H460 lung
# [40] = system: HCT-15 colon
# [41] = system: SR leukemia
# [42] = system: NCI-H226 lung
# [43] = system: HOP-92 NSCLC
# [44] = system: SK-OV-3 ovarian
# [45] = system: HT29 colon
# [46] = system: M14 melanoma
# [47] = system: UACC-62 melanoma
# [48] = system: LOX IMVI melanoma
# [49] = system: HL-60(TB) leukemia
# [50] = system: SF-295 CNS
# [51] = system: U251 CNS
# [52] = system: HCT-116 colon
# [53] = system: OVCAR-3 ovarian
# [54] = system: RXF 393 renal
# [55] = system: SN12C renal
# [56] = system: MDA-MB-231 breast
# [57] = system: OVCAR-5 ovarian
# [58] = system: BT-549 breast
smiles,measurement,setting,value
COc1cccc2nc(Nc3ccc(F)c(NC(=O)c4ccc(CN5CCN(C)CC5)c(C(F)(F)F)c4)c3)ccc12,GI50,[1],15.1 µM
same,TGI,[1],28.3 µM
same,GI50,[2],15.5 µM
same,TGI,[2],29.6 µM
same,GI50,[3],18.8 µM
same,TGI,[3],33.2 µM
same,GI50,[4],12.2 µM
same,TGI,[4],24.6 µM
same,GI50,[5],4.79 µM
same,TGI,[5],18.1 µM
same,GI50,[6],12.9 µM
same,TGI,[6],25.6 µM
same,GI50,[7],16.4 µM
same,TGI,[7],30.2 µM
same,GI50,[8],11.7 µM
same,TGI,[8],24.1 µM
same,GI50,[9],17.2 µM
same,TGI,[9],32.8 µM
same,GI50,[10],9.3 µM
same,TGI,[10],27.1 µM
same,GI50,[11],11.1 µM
same,TGI,[11],27.1 µM
same,GI50,[12],16.1 µM
same,TGI,[12],29.9 µM
same,GI50,[13],15.4 µM
same,TGI,[13],29.6 µM
same,GI50,[14],14.1 µM
same,TGI,[14],39.9 µM
same,GI50,[15],4.1 µM
same,TGI,[15],18.4 µM
same,GI50,[16],16.3 µM
same,TGI,[16],30.1 µM
same,GI50,[17],14.8 µM
same,TGI,[17],31.4 µM
same,GI50,[18],16.5 µM
same,TGI,[18],34.9 µM
same,GI50,[19],12 µM
same,TGI,[19],28.7 µM
same,GI50,[20],17.2 µM
same,TGI,[20],31.9 µM
same,GI50,[21],12.5 µM
same,TGI,[21],26.4 µM
same,GI50,[22],13.9 µM
same,TGI,[22],28.9 µM
same,GI50,[23],15.3 µM
same,TGI,[23],30.3 µM
same,GI50,[24],9.08 µM
same,TGI,[24],21.4 µM
same,GI50,[25],11.5 µM
same,TGI,[25],24.2 µM
same,GI50,[26],16 µM
same,TGI,[26],30.2 µM
same,GI50,[27],15.8 µM
same,TGI,[27],29.8 µM
same,GI50,[28],9.71 µM
same,TGI,[28],25.6 µM
same,GI50,[29],14.5 µM
same,TGI,[29],29 µM
same,GI50,[30],14.7 µM
same,TGI,[30],29.1 µM
same,GI50,[31],17 µM
same,TGI,[31],32.2 µM
same,GI50,[32],12.6 µM
same,TGI,[32],25.5 µM
same,GI50,[33],14.5 µM
same,TGI,[33],28 µM
same,GI50,[34],16.9 µM
same,TGI,[34],30.9 µM
same,GI50,[35],3.59 µM
same,TGI,[35],20.9 µM
same,GI50,[36],12.3 µM
same,TGI,[36],27.5 µM
same,GI50,[37],15.5 µM
same,TGI,[37],28.9 µM
same,GI50,[38],12.4 µM
same,TGI,[38],25.5 µM
same,GI50,[39],15.9 µM
same,TGI,[39],33.5 µM
same,GI50,[40],13.4 µM
same,TGI,[40],28.4 µM
same,GI50,[41],9.84 µM
same,TGI,[41],28 µM
same,GI50,[42],11.1 µM
same,TGI,[42],24.7 µM
same,GI50,[43],6.64 µM
same,TGI,[43],21.6 µM
same,GI50,[44],15.7 µM
same,TGI,[44],29.8 µM
same,GI50,[45],3.61 µM
same,TGI,[45],13.9 µM
same,GI50,[46],13.1 µM
same,TGI,[46],27.5 µM
same,GI50,[47],16.2 µM
same,TGI,[47],30.9 µM
same,GI50,[48],13.8 µM
same,TGI,[48],27.3 µM
same,GI50,[49],6.52 µM
same,TGI,[49],25.4 µM
same,GI50,[50],17.1 µM
same,TGI,[50],32.2 µM
same,GI50,[51],13.4 µM
same,TGI,[51],26.1 µM
same,GI50,[52],8.75 µM
same,TGI,[52],22.6 µM
same,GI50,[53],14.4 µM
same,TGI,[53],28 µM
same,GI50,[54],3.71 µM
same,TGI,[54],17.2 µM
same,GI50,[55],13.4 µM
same,TGI,[55],27.4 µM
same,GI50,[56],12.1 µM
same,TGI,[56],24.9 µM
same,GI50,[57],16.1 µM
same,TGI,[57],30.4 µM
same,GI50,[58],10.5 µM
same,TGI,[58],22.6 µM

# Reference: PubChem BioAssay (NCI)
